The values below come from patent US9227971B2, “Pyrazolo[1,5-a]pyrimidine compounds as mTOR inhibitors” (Merck Sharp & Dohme Corp., priority 2010, dated 2016).

Where two headings read alike, the source gives them in different places. Bounds are passed on as bounds.

In experiment [1] the test system is phosphorylated AKT Ser473 (pAKT S473), mTORC2 activity, PC3 cells. Description: mTOR target engagement assay, immunofluorescent cell-based, pAKT S473 readout (mTORC2 activity). The note with it: Homo sapiens. An outline of the steps: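 After blocking, cells were stained overnight at 4 °C with anti-pAKT S473 antibody, then a fluorescent secondary; inhibition was read as reduced fluorescence intensity.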

Experiment [2] concerns phosphorylated 4E-BP1 Thr37/46 (p4E-BP1 Thr37/46), mTORC1 activity, PC3 cells. Description: mTOR target engagement assay, immunofluorescent cell-based, p4E-BP1 Thr37/46 readout (mTORC1 activity). The settings on record: Homo sapiens, read-out: p4E-BP1 Thr37/46 IC50. An outline of the steps: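 Seed PC3 cells overnight; treat with compound dilutions for ninety minutes at 37° C; fix with glyoxal and block; stain with anti-p4E-BP1 Thr37/46 overnight at 4° C, then fluorescent secondary; read fluorescence and fit IC50 against DMSO-only controls.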

The mark [3] stands for this setting: PC-3, PC3 cells, compound treatment ninety minutes at 37° C.

On to `CC(=O)c1c([C@@H]2C[C@H]3CC[C@@H](C2)N3C(=O)c2nnc[nH]2)nc2c(-c3cncc(CO)c3)cnn2c1N` [Compound 1.1.184, 1-(5-((1R,3s,5S)-8-(4H-1,2,4-triazole-3-carbonyl)-8-azabicyclo[3.2.1]octan-3-yl)-7-amino-3-(5-(hydroxymethyl)pyridin-3-yl)pyrazolo[1,5-a]pyrimidin-6-yl)ethanone], for which the IC50 in experiment [1] (setting [3]) and in experiment [2] (setting [3]) was 100 to 1000 nM throughout.
On to `CC(=O)c1c([C@@H]2C[C@H]3CC[C@@H](C2)N3C(=O)c2n[nH]c(N)n2)nc2c(-c3ccc(-c4ccccc4)nc3)cnn2c1N` [Compound 1.1.140, 1-(7-amino-5-((1R,3s,5S)-8-(5-amino-1H-1,2,4-triazole-3-carbonyl)-8-azabicyclo[3.2.1]octan-3-yl)-3-(6-phenylpyridin-3-yl)pyrazolo[1,5-a]pyrimidin-6-yl)ethanone], for which the IC50 in experiment [1] (setting [3]) and in experiment [2] (setting [3]) was 1 to 100 nM in each case.
Take `Cc1cnc(-c2ccc(-c3cnn4c(N)c(S(C)(=O)=O)c([C@@H]5C[C@H]6CC[C@@H](C5)N6C(=O)C5(O)CC5)nc34)cn2)s1` [Compound 3.186, ((1R,3s,5S)-3-(7-amino-6-(methylsulfonyl)-3-(6-(5-methylthiazol-2-yl)pyridin-3-yl)pyrazolo[1,5-a]pyrimidin5-yl)-8-azabicyclo[3.2.1]octan-8-yl)(1-hydroxycyclopropyl)methanone]: the IC50 in experiment [1] (PC-3, Table 3-1, PC3 cells) is 1000 to 10000 nM; in experiment [2] (PC-3, Table 3-1, PC3 cells), 1000 to 10000 nM.
Regarding `CS(=O)(=O)c1c([C@@H]2C[C@H]3CC[C@@H](C2)N3C(=O)c2cc(CO)n[nH]2)nc2c(-c3ccc(-c4ccccc4)nc3)cnn2c1N` [Compound 3.84, ((1R,3s,5S)-3-(7-amino-6-(methylsulfonyl)-3-(6-phenylpyridin-3-yl)pyrazolo[1,5-a]pyrimidin-5-yl)-8-azabicyclo[3.2.1]octan-8-yl)(3-(hydroxymethyl)-1H-pyrazol-5-yl)methanone], the IC50 in experiment [1] (PC-3, Table 3-1, PC3 cells) is 1 to 100 nM; in experiment [2] (PC-3, Table 3-1, PC3 cells), 100 to 1000 nM.
Consider `CC(=O)c1c([C@@H]2C[C@H]3CC[C@@H](C2)N3C(=O)CNS(C)(=O)=O)nc2c(-c3ccc(-c4ccccc4)nc3)cnn2c1N` [Compound 1.1.23, N-(2-((1R,3s,5S)-3-(6-acetyl-7-amino-3-(6-phenylpyridin-3-yl)pyrazolo[1,5-a]pyrimidin-5-yl)-8-azabicyclo[3.2.1]octan-8-yl)-2-oxoethyl)methanesulfonamide], for which the IC50 in experiment [1] (setting [3]) and in experiment [2] (setting [3]) was 100 to 1000 nM throughout.
For the compound `CC(=O)Nc1ccc(-c2cnn3c(N)c(C(C)=O)c([C@@H]4C[C@H]5CC[C@@H](C4)N5C(=O)c4ncn[nH]4)nc23)cn1` [Compound 8.76, N-(5-(5-((1R,3s,5S)-8-(1H-1,2,4-triazole-5-carbonyl)-8-azabicyclo[3.2.1]octan-3-yl)-6-acetyl-7-aminopyrazolo[1,5-a]pyrimidin-3-yl)pyridin-2-yl)acetamide], the IC50 in experiment [1] (PC-3, PC3 cells) is 1 to 100 nM; in experiment [2] (PC-3, PC3 cells) it was 1 to 100 nM.
Turning to `CC(=O)c1c([C@@H]2C[C@H]3CC[C@@H](C2)N3C(=O)CO)nc2c(-c3ccc(-c4ncc[nH]4)cc3)cnn2c1N` [Compound 6.42, 1-((1R,3s,5S)-3-(3-(4-(1H-imidazol-2-yl)phenyl)-6-acetyl-7-aminopyrazolo[1,5-a]pyrimidin-5-yl)-8-azabicyclo[3.2.1]octan-8-yl)-2-hydroxyethanone], the IC50 in experiment [1] (PC-3, Table 6-1, PC3 cells) was 1 to 100 nM; in experiment [2] (PC-3, Table 6-1, PC3 cells), 1 to 100 nM.
On to `CC(=O)c1c([C@@H]2C[C@H]3CC[C@@H](C2)N3C(=O)c2nnc[nH]2)nc2c(-c3ccc(-c4nccs4)nc3)cnn2c1N` [Compound 1.1.37, 1-(5-((1R,3s,5S)-8-(4H-1,2,4-triazole-3-carbonyl)-8-azabicyclo[3.2.1]octan-3-yl)-7-amino-3-(6-(thiazol-2-yl)pyridin-3-yl)pyrazolo[1,5-a]pyrimidin-6-yl)ethanone], for which the IC50 in experiment [1] (setting [3]) and in experiment [2] (setting [3]) was 1 to 100 nM in each case.
For the compound `CC(=O)c1c([C@@H]2C[C@H]3CC(O)[C@@H](C2)N3C(=O)c2nc[nH]n2)nc2c(-c3ccc(-c4ccccc4)nc3)cnn2c1N` (stereo partly drawn) [Compound 8.34, 1-(7-amino-5-((1S,3R,5R)-6-hydroxy-8-(1H-1,2,4-triazole-3-carbonyl)-8-azabicyclo[3.2.1]octan-3-yl)-3-(6-phenylpyridin-3-yl)pyrazolo[1,5-a]pyrimidin-6-yl)ethanone], the IC50 was in the range of 1 to 100 nM in experiment [1] (PC-3, PC3 cells) and 1 to 100 nM in experiment [2] (PC-3, PC3 cells).
Consider `CS(=O)(=O)c1c([C@@H]2C[C@H]3CC[C@@H](C2)N3C(=O)c2nnn[nH]2)nc2c(-c3ccc(-c4ccccc4)nc3)cnn2c1N` [Compound 3.5, ((1R,3s,5S)-3-(7-amino-6-(methylsulfonyl)-3-(6-phenylpyridin-3-yl)pyrazolo[1,5-a]pyrimidin-5-yl)-8-azabicyclo[3.2.1]octan-8-yl)(1H-tetrazol-5-yl)methanone], for which the IC50 in experiment [1] (PC-3, Table 3-1, PC3 cells) is 1000 to 10000 nM; in experiment [2] (PC-3, Table 3-1, PC3 cells) it was more than 10000 nM.
With `CC(=O)c1c([C@@H]2C[C@H]3CC[C@@H](C2)N3C(=O)c2ccc[nH]2)nc2c(-c3ccc(-c4ccccc4)nc3)cnn2c1N` [Compound 1.1.43, 1-(5-((1R,3s,5S)-8-(1H-pyrrole-2-carbonyl)-8-azabicyclo[3.2.1]octan-3-yl)-7-amino-3-(6-phenylpyridin-3-yl)pyrazolo[1,5-a]pyrimidin-6-yl)ethanone], the IC50 in experiment [1] (setting [3]) and in experiment [2] (setting [3]) was 100 to 1000 nM each time.
For the compound `COCC(=O)N1[C@@H]2CC[C@H]1C[C@H](c1nc3c(-c4ccc(-c5ncc[nH]5)nc4)cnn3c(N)c1C(C)=O)C2` [Compound 6.16, 1-((1R,3s,5S)-3-(3-(6-(1H-imidazol-2-yl)pyridin-3-yl)-6-acetyl-7-aminopyrazolo[1,5-a]pyrimidin-5-yl)-8-azabicyclo[3.2.1]octan-8-yl)-2-methoxyethanone], the IC50 was in the range of 1 to 100 nM in experiment [1] (PC-3, Table 6-1, PC3 cells) and 1 to 100 nM in experiment [2] (PC-3, Table 6-1, PC3 cells).
As to `CS(=O)(=O)c1c([C@@H]2C[C@H]3CC[C@@H](C2)N3C(=O)c2ccn[nH]2)nc2c(-c3cn[nH]c3)cnn2c1N` [Compound 3.117, ((1R,3a,4S)-3-(7-amino-6-(methylsulfonyl)-3-(1H-pyrazol-4-yl)pyrazolo[1,5-a]pyrimidin-5-yl)-8-azabicyclo[3.2.1]octan-8-yl)(1H-pyrazol-5-yl)methanone], the IC50 in experiment [1] (PC-3, Table 3-1, PC3 cells) was more than 10000 nM; in experiment [2] (PC-3, Table 3-1, PC3 cells), more than 10000 nM.
Take `CC(=O)c1c([C@@H]2C[C@H]3CC[C@@H](C2)N3C(=O)c2nnc[nH]2)nc2c(-c3ccc(-c4cc(C)[nH]n4)nc3)cnn2c1N` [Compound 1.1.95, 1-(5-((1R,3s,5S)-8-(4H-1,2,4-triazole-3-carbonyl)-8-azabicyclo[3.2.1]octan-3-yl)-7-amino-3-(6-(5-methyl-1H-pyrazol-3-yl)pyridin-3-yl)pyrazolo[1,5-a]pyrimidin-6-yl)ethanone]: the IC50 in experiment [1] (setting [3]) and in experiment [2] (setting [3]) was 1000 to 10000 nM in each case.
With `CS(=O)(=O)c1c([C@@H]2C[C@H]3CC[C@@H](C2)N3C(=O)c2nnc[nH]2)nc2c(-c3ccc(-c4ccc5c(c4)OCO5)nc3)cnn2c1N` [Compound 3.52, ((1R,3s,5S)-3-(7-amino-3-(6-(benzo[d][1,3]dioxol-5-yl)pyridin-3-yl)-6-(methylsulfonyl)pyrazolo[1,5-a]pyrimidin-5-yl)-8-azabicyclo[3.2.1]octan-8-yl)(4H-1,2,4-triazol-3-yl)methanone], the IC50 in experiment [1] (PC-3, Table 3-1, PC3 cells) was in the range of 1 to 100 nM; in experiment [2] (PC-3, Table 3-1, PC3 cells), 1 to 100 nM.
